Results as given in US20230226152A1, “INTERLEUKIN-2 POLYPEPTIDE CONJUGATES AND METHODS OF USE THEREOF” (Ambrx, Inc., priority 2020, published 2023).

Test system: CTLL-2 cells
Assay: CTLL-2 cell expansion / proliferation (binding) assay
Type: cell-based
Protocol: T cell expansion test of IL-2 variants in CTLL-2 cells. CTLL-2 cell expansion assay was performed using transiently expressed F42 variant supernatant from transfected engineered CHO cells. […] Cell proliferation was performed using Cell Titer Glo (Promega, WI). Luminescent signal was read on TECAN genios pro. […] A general procedure for studying the IL-2 variants of the present invention is shown in the following:
Utilizing a CTLL-2 cell expansion assay as disclosed in the Examples, 20 different IL-2 variants including 16 originally selected sites (wild type included) and 4 additional sites (K32, K48, K49, K76) known in the art were screened (Charych, D., et al., PLoS One, 12(7): p. e0179431, 2017). […] Identified variants were further analyzed for their binding capabilities after PEGylation.

F42: IL-2 with unnatural amino acid (pAF) at F42, SEQ ID NO: 9
EC50 (transiently expressed variant supernatant from engineered CHO cells, Cell Titer Glo): around 0.24 ng/mL
function retained compared to wild type control (wild type IL-2 = 100% proliferation): 95%
